For 34 molecules, CC50 and IC50 results are on record in ChEMBL document CHEMBL1144639, “Imidazo[1,2-a]pyridines with potent activity against herpesviruses” (Bioorg Med Chem Lett, 2007).

The nature of data set [1]: Cytotoxicity against Vero cells. The data set is classed as cell-based. To be noted: chlorocebus sabaeus.
For a further data set, the system named is Human alphaherpesvirus 1. In words: Antiviral activity against HSV1 SC16 in Vero cells by capture hybrid method. The data set is classed as functional, organism-based. To be noted: Human alphaherpesvirus 1, SC16, Vero.

Usually CC50 stands for the concentration giving 50% cytotoxicity. Low readings indicate harm at low concentration, high ones better tolerance by the cells. One may read the IC50 as the concentration at which inhibition is half-maximal. For the molecule `C=CCOc1ccc(-c2nc3c(NC4CCCC4)cccn3c2-c2ccnc(NC3CCCC3)n2)cc1`, the CC50 in data set [1] was greater than 40 µM. Moreover, half-maximal inhibition with Human alphaherpesvirus 1 (IC50) was put at 570 nM. Molecule `Nc1nc2c(ncn2COCCO)c(=O)[nH]1` [ACYCLOVIR] returned a CC50 in data set [1] greater than 200 µM. As for `Fc1ccc(-c2nn3c(NC4CCCC4)cccc3c2-c2ccnc(NC3CCCC3)n2)cc1`, in data set [1], the CC50 was greater than 160 µM. With `Fc1ccc(-c2nc3ccc(Br)cn3c2-c2ccnc(NC3CCCC3)n2)cc1`, the half-maximal cytotoxic concentration (CC50) in data set [1] is greater than 40 µM. This molecule also registered a half-maximal inhibitory concentration (IC50) in the data set on Human alphaherpesvirus 1 of 4080 nM. Consider `Fc1ccc(-c2nc3c(NC4CCCC4)cc(Cl)cn3c2-c2ccnc(NC3CCCC3)n2)cc1`, for which the CC50 in data set [1] was greater than 40 µM. The molecule further returned an IC50 in the data set on Human alphaherpesvirus 1 of 370 nM. `Fc1ccc(-c2nc3c(NC4CCCC4)cc(Br)cn3c2-c2ccnc(NC3CCCC3)n2)cc1` showed a CC50 in data set [1] greater than 40 µM. For the same molecule, 220 nM corresponded to half-maximal inhibition in the data set with Human alphaherpesvirus 1 (IC50).

In data set [1], `CCCCNc1cccn2c(-c3ccnc(NC4CCCC4)n3)c(-c3ccc(F)cc3)nc12` returned a half-maximal cytotoxic concentration (CC50) of 32 µM. Also, in the data set on Human alphaherpesvirus 1, the IC50 was determined as 800 nM.

As for `Fc1ccc(-c2nc3c(NC4CC4)cccn3c2-c2ccnc(NC3CCCC3)n2)cc1`, the CC50 in data set [1] was 33 µM. In the data set on Human alphaherpesvirus 1, half-maximal inhibition (IC50) required 510 nM.

Consider `N#Cc1cccc(-c2nc3c(NC4CCCC4)cccn3c2-c2ccnc(NC3CCCC3)n2)c1`, for which, in data set [1], the CC50 was greater than 40 µM. In the data set with Human alphaherpesvirus 1, this molecule had an IC50 of 360 nM. Turning to `Cc1cccn2c(-c3ccnc(NC4CCCC4)n3)c(-c3ccc(F)cc3)nc12`, the CC50 in data set [1] was greater than 40 µM. The molecule further yielded an IC50 in the data set on Human alphaherpesvirus 1 of 1530 nM.

On to `Cc1ccc(-c2nc3c(NC4CCCC4)cccn3c2-c2ccnc(NC3CCCC3)n2)cc1`, for which the CC50 in data set [1] is greater than 40 µM. This molecule yielded an IC50 in the data set on Human alphaherpesvirus 1 of 1610 nM. The matching figures for `Cc1cc(NC2CCCC2)cn2c(-c3ccnc(NC4CCCC4)n3)c(-c3ccc(F)cc3)nc12`: greater than 40 µM and 150 nM.

As for `Fc1ccc(-c2nc3c(N4CCCC4)cccn3c2-c2ccnc(NC3CCCC3)n2)cc1`, in data set [1], the CC50 is greater than 40 µM. In addition, the IC50 with Human alphaherpesvirus 1 was determined as 1880 nM. The matching figures for `Oc1ccc(-c2nc3c(NC4CCCC4)cccn3c2-c2ccnc(NC3CCCC3)n2)cc1`: greater than 40 µM and 3400 nM. In turn, `Fc1ccc(-c2nc3c(NC4CCCC4)cccn3c2-c2ccnc(NC3CCCC3)n2)cc1` yielded a CC50 in data set [1] greater than 40 µM. The molecule further registered a half-maximal inhibitory concentration (IC50) in the data set on Human alphaherpesvirus 1 of 590 nM. The matching figures for `CNc1nccc(-c2c(-c3ccc(F)cc3)nc3c(NC4CCCC4)cccn23)n1`: greater than 40 µM and greater than 5000 nM. The matching figures for `COc1cccc(-c2nc3c(Cl)cccn3c2-c2ccnc(NC3CCCC3)n2)c1`: greater than 40 µM and 1730 nM.

In turn, `COc1ccc(-c2nc3c(Cl)cccn3c2-c2ccnc(NC3CCCC3)n2)cc1` displayed a cytotoxic concentration (CC50) in data set [1] of 30.1 µM. The same molecule showed an IC50 with Human alphaherpesvirus 1 of 1430 nM. On the same counts, the results for `COCCNc1cccn2c(-c3ccnc(NC4CCCC4)n3)c(-c3ccc(F)cc3)nc12` are greater than 40 µM and 260 nM. The molecule `COc1ccc(-c2nc3c(NC4CCCC4)cccn3c2-c2ccnc(NC3CCCC3)n2)cc1` registered a CC50 in data set [1] greater than 10 µM. In the data set on Human alphaherpesvirus 1, this molecule registered an IC50 of 480 nM. With `Cc1cc(Br)cn2c(-c3ccnc(NC4CCCC4)n3)c(-c3ccc(F)cc3)nc12`, the cytotoxic concentration (CC50) in data set [1] is greater than 40 µM. Further, in the data set with Human alphaherpesvirus 1, the concentration for half-maximal inhibition (IC50) came to 1160 nM. Turning to `CNc1nccc(-c2c(-c3ccc(F)cc3)nc3c(Cl)cccn23)n1`, the CC50 in data set [1] is greater than 40 µM. This molecule showed an IC50 in the data set on Human alphaherpesvirus 1 of 9300 nM. On the same counts, the results for `Cc1cc(NC2CC2)cn2c(-c3ccnc(NC4CCCC4)n3)c(-c3ccc(F)cc3)nc12` are greater than 40 µM and 120 nM. On the same counts, the results for `COc1cccc(-c2nc3c(NC4CCCC4)cccn3c2-c2ccnc(NC3CCCC3)n2)c1` are greater than 40 µM and 710 nM. The matching figures for `c1cc(NC2CCCC2)c2nc(-c3ccc(OCC4CC4)cc3)c(-c3ccnc(NC4CCCC4)n3)n2c1`: greater than 40 µM and 270 nM. In data set [1], `Fc1ccc(-c2nc3ccc(NC4CCCC4)cn3c2-c2ccnc(NC3CCCC3)n2)cc1` showed a CC50 greater than 40 µM. The molecule also yielded a 50% inhibitory concentration (IC50) in the data set with Human alphaherpesvirus 1 of 330 nM. The matching figures for `CCCCNc1cc(Br)cn2c(-c3ccnc(NC4CCCC4)n3)c(-c3ccc(F)cc3)nc12`: greater than 40 µM and 300 nM. The molecule `Fc1ccc(-c2nc3ccccn3c2-c2ccnc(NC3CCCC3)n2)cc1` came in with a 50% cytotoxic concentration (CC50) in data set [1] greater than 40 µM. The molecule also returned an IC50 in the data set with Human alphaherpesvirus 1 of 3300 nM. In data set [1], `Fc1ccc(-c2nc3c(Cl)cc(Cl)cn3c2-c2ccnc(NC3CCCC3)n2)cc1` registered a CC50 greater than 40 µM. This molecule also returned an IC50 with Human alphaherpesvirus 1 of 1110 nM.

With `Oc1cccc(-c2nc3c(NC4CCCC4)cccn3c2-c2ccnc(NC3CCCC3)n2)c1`, the CC50 in data set [1] was greater than 40 µM. The molecule further displayed a 50% inhibitory concentration (IC50) in the data set on Human alphaherpesvirus 1 of 3130 nM. With `C=CCOc1cccc(-c2nc3c(NC4CCCC4)cccn3c2-c2ccnc(NC3CCCC3)n2)c1`, in data set [1], the CC50 was greater than 40 µM. In the data set with Human alphaherpesvirus 1, this molecule had a concentration for half-maximal inhibition (IC50) of 300 nM.

`Fc1ccc(-c2nc3c(Br)cc(Br)cn3c2-c2ccnc(NC3CCCC3)n2)cc1` yielded a CC50 in data set [1] greater than 40 µM. Moreover, the midpoint of inhibition in the data set on Human alphaherpesvirus 1, the IC50, lay at 800 nM. `Fc1ccc(-c2nc3c(NC4CCCC4)cccn3c2-c2ccnc(NC3CCCC3)c2)cc1` yielded a CC50 in data set [1] greater than 40 µM. For the molecule `N#Cc1ccc(-c2nc3c(NC4CCCC4)cccn3c2-c2ccnc(NC3CCCC3)n2)cc1`, the CC50 in data set [1] is greater than 40 µM. It took 320 nM to reach half-maximal inhibition in the data set on Human alphaherpesvirus 1 (IC50).
